Drawing on the METLIN SMRT retention time set (Domingo-Almenara et al. 2019), this text covers RP-LC retention time for 60 molecules.

This data set can be described thus: gradient 5% acetonitrile 3 min, to 50% in 2 min, to 85% in 15 min, held 3 min, 100 µL/min. Conditions: column: Zorbax Extend-C18 2.1 x 50 mm; eluents: water / acetonitrile, 0.1% formic acid. In outline:
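The mobile phases were water and acetonitrile, each with 0.1% formic acid, pumped at 100 μL/min through a Zorbax Extend-C18 column (2.1 × 50 mm, 1.8 μm). Pure standards were injected as mixtures of ~100 molecules and detected by a quadrupole time-of-flight mass spectrometer in positive and negative ionization mode. Retention time came from computationally picked adduct peaks, each inspected by hand.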
As for `O=C(Cn1cccc1-c1nc(-c2ccc(F)cc2)no1)N1CCc2ccccc21`, the RP-LC retention time stood at 1140 s. In turn, `CCC1CN2C=Nc3oc(C)c(C(=O)Nc4ccc(F)c(Cl)c4)c3C2=N1` (stereo not given) displayed an RP-LC retention time of 704 s.

Molecule `O=C1N(c2cccc(F)c2)c2ncccc2S(=O)(=O)N1Cc1cccc(F)c1` came in with an RP-LC retention time of 1030 s.

`CCOC(=O)N1CCN(c2cc(C(=O)O)c3cc(NC(=O)COc4ccccc4)ccc3n2)CC1`: the RP-LC retention time worked out at 629 s. Regarding `COCCNC(=O)CC1CCN(C(=O)c2[nH]c(C)c(C)c2C)CC1`, the RP-LC retention time is 657 s. `O=C(c1cccs1)N1CCCN(c2ccc(=O)n(-c3ccccc3)n2)CC1`: the RP-LC retention time came to 700 s. The value for `COc1ccc2[nH]cc(CCNC(=O)Cc3ccc(F)cc3)c2c1` was 790 s. On to `O=C(CSc1nnc2c3sc(N4CCCC4)nc3ncn12)NC1CCCCC1`, for which the RP-LC retention time turned out to be 767 s.

`CCCN1CCCCc2cc(C(=O)NCC(F)F)sc21` registered an RP-LC retention time of 932 s. Turning to `Cc1ccc(C)c(NC(=O)N2CCN(c3cnn4c(C)nnc4c3)CC2)c1`, the RP-LC retention time was determined as 629 s.

Turning to `Nc1ccc(CCNc2ncnc3c2ncn3C2OC(CO)C(O)C2O)cc1` (stereo not given), the RP-LC retention time is 540 s.

Turning to `CC(C)c1ccc(-c2ccnc3c(C(=O)N4CCN(c5ncccn5)CC4)cnn23)cc1`, the RP-LC retention time is 963 s.

Take `Cc1ccnc(NC(=O)C2CC(=O)N(c3n[nH]c4cccc(F)c34)C2)c1` (stereo not given): the RP-LC retention time stood at 602 s. Regarding `Cc1c(C(=O)NC2CCCCC2)cnn1-c1cc(-c2nc(C3CC3)no2)ccn1`, the RP-LC retention time amounted to 1060 s. With `COc1cccc(CN2CCC3(CC2)NCCc2c3[nH]c3ccc(OC)cc23)c1` the figure was 589 s; with `CCCNC(=O)C1CCN(C(=O)CCc2c(C)[nH]c(C(=O)OCC)c2C)CC1`, 679 s; with `CC(CNC(=O)c1cn(C)nc1S(=O)(=O)N1CCSCC1)c1ccccc1` (stereo not given), 1120 s. `CCOc1ccc(N2CC(c3nc(-c4ccc(OC)c(OC)c4)no3)CC2=O)cc1` (stereo not given): the RP-LC retention time came out at 882 s. Take `Cc1nnsc1C(=O)N1CCc2nc(NC(=O)C3CC3)sc2C1`: the RP-LC retention time is 630 s. The value for `CC(C)CN1CCn2cc(C(=O)N3CCC(C)CC3)nc2C1` was 599 s; that for `O=C(C1CCCO1)N1CCC(OCc2nc(-c3cccnc3)no2)CC1` (stereo not given) was 636 s. In the case of `COc1ccccc1-c1c(C)nn2c(SCC(=O)NCCN(C)C)cc(C)nc12`, the RP-LC retention time is 622 s. The value for `O=c1c2cc3c(cc2nc(SCc2nc(-c4cccc(F)c4)no2)n1Cc1ccccc1)OCO3` was 1250 s; that for `Cc1cccc2nnc(N3CCCC(C(=O)Nc4ccc5c(c4)OCCO5)C3)n12` (stereo not given) was 669 s. Consider `CC(C)CNC(=O)C1CCCN(c2ccnc(-c3ccc(F)cc3)n2)C1` (stereo not given), for which the RP-LC retention time stood at 659 s. As to `COc1ccc(S(=O)(=O)N2CCCC(C(=O)Nc3cccc(Br)c3)C2)cc1Cl` (stereo not given), the RP-LC retention time came out at 1110 s.

In turn, `O=C(COc1ccc(Cl)cc1)NCc1ccc2c(c1)OCCCO2` showed an RP-LC retention time of 870 s. The value for `Cc1cc(C)cc(OCc2nc(CCN(C)C(=O)Nc3ccccc3)no2)c1` was 970 s.

The molecule `O=S(=O)(c1ccc(F)cc1F)N1CCC(c2noc(-c3ccc(F)cc3)n2)CC1` gave an RP-LC retention time of 1130 s. With `CCCCC(=O)N1CC(c2nc(-c3ccc(F)cc3)no2)C2(CCOCC2)C1` (stereo not given) the figure was 904 s; with `COCCn1ccc2c(OCC(=O)N(C(C)C)C(C)C)cccc2c1=O`, 798 s. Molecule `CC(C)n1cc(CN2CCOCCNC(=O)CC2)c2ccccc21` gave an RP-LC retention time of 631 s. The value for `Cc1ccccc1C(=O)N1CCC2(CC1)NC(=O)c1cc(F)ccc1N2C` was 749 s; that for `O=C(NCCCN1CCOCC1)c1cc(-c2ccccn2)nc2ccccc12` was 592 s; that for `COC(=O)c1ccc(Cn2cnc3nc4c(cc3c2=O)CC(C)CC4)cc1` (stereo not given) was 852 s. With `COCCNC(=O)CC1CCN(C(=O)c2cc3cc(Cl)ccc3[nH]2)CC1`, the RP-LC retention time turned out to be 701 s. The value for `Cn1cc(S(=O)(=O)N2CCCCC2)cc1C(=O)Nc1cccc(F)c1` was 1020 s. For the molecule `CC(C)(C(N)=O)c1ccccc1`, the RP-LC retention time was found to be 712 s. Regarding `CC(C)C(=O)N1CCCn2nc(-c3cccnc3)cc2C1`, the RP-LC retention time stood at 579 s. `O=c1c2cc(-c3ccc(F)cc3)nn2ccn1Cc1noc(CN2CCCC2)n1`: the RP-LC retention time came to 638 s.

Molecule `Cc1ccc(C(=O)N2CCC3(CC2)c2nccn2-c2ccccc2CN3CC(C)C)cc1F` registered an RP-LC retention time of 786 s.

Molecule `COc1ccc(-c2cc3n(n2)CCCN(C(=O)NCCc2ccccc2)C3)cc1` gave an RP-LC retention time of 814 s. With `Cc1ccc(Cl)cc1N1CCN(C(=O)C2CCN(c3ncnc4c3oc3ccccc34)CC2)CC1` the figure was 1060 s. Take `COc1ccc(NC(=O)C2CCCN(c3nnc4ccc(Cl)cn34)C2)cc1OC` (stereo not given): the RP-LC retention time was found to be 701 s. With `CC1(C(=O)NCc2ccccc2)CCCN(C(=O)NCc2ccccc2)C1` (stereo not given) the figure was 810 s; with `CCc1nn2c(CNS(=O)(=O)c3cc(F)ccc3F)c(-c3ccccc3)nc2s1`, 929 s. The molecule `Cc1cc(NC(C)C)n2nc(-c3ccc(Cl)cc3)c(C)c2n1` gave an RP-LC retention time of 761 s.

As to `CN(C)c1nc2ncn3c(=O)n(CC(=O)NCc4ccc(F)cc4)nc3c2s1`, the RP-LC retention time is 675 s.

Molecule `O=C(NCC1(CO)CC1)c1c(F)cccc1Cl` came in with an RP-LC retention time of 609 s. In turn, `CCC(C)NC(=O)N1CCN(Cc2nc3cccnc3n2-c2cccc(C)c2)CC1` (stereo not given) yielded an RP-LC retention time of 646 s. The value for `Cn1c(=O)sc2cc(S(=O)(=O)N3CCC(C(=O)N4CCc5ccccc5C4)CC3)ccc21` was 896 s; that for `CCC1CN(C(=O)N2CCC(C(=O)NCCCN3CCOCC3)CC2)c2ccccc2O1` (stereo not given) was 632 s. `CSc1nc(C)c(Br)c(N2CC2)n1`: the RP-LC retention time came to 596 s. The value for `COc1ccc2[nH]c3c(c2c1)CCNC3c1ccc(C)cc1` (stereo not given) was 654 s; that for `CCOc1ccc(C(=O)NC2(c3nc(-c4cccnc4)no3)CCCCC2)cc1OCC` was 998 s. Consider `Cc1ccn2cc(-c3ccc(NC(=O)c4ccccc4[N+](=O)[O-])cc3)nc2n1`, for which the RP-LC retention time turned out to be 622 s. The value for `Cc1sc(-c2cc(C(F)(F)F)[nH]n2)cc1S(=O)(=O)N1CCN(C2CCCCC2)CC1` was 726 s; that for `CCOC(=O)CC(=O)CSc1nc(-c2ccccc2)ns1` was 993 s. The value for `CCc1nnc(-c2cccn2CC(=O)NCc2cccc(Br)c2)o1` was 835 s; that for `O=c1ccn(-c2cccc(F)c2)nc1-c1nc(-c2ccc(OCc3ccccc3)cc2)no1` was 1070 s.
